Results taken from PMC12655527, “An Investigational Study on the Role of ADME Agents’ Genetic Variation on DD217 Pharmacokinetics and Safety Profile” (Pharmaceuticals, 2025).

Key:
[1] = system: patients undergoing knee replacement surgery; test: Bleeding events during 14-day therapy, phase II trial; type: in vivo, human; conditions: for Bleeding, n (safety outcomes): 14 days
Excerpt: (§1) The design, eligibility criteria, and outcomes of the phase II clinical trial evaluating the safety and tolerability of DD217 (NCT05189002, ClinicalTrials.gov) have been described previously. Briefly, this was a multicenter, double-blind, randomized, prospective phase II study designed to determine the optimal dosing regimen and to assess the safety and efficacy of DD217 for the prevention of venous thromboembolism (VTE) in patients undergoing knee replacement surgery. Patients were randomized into one of three groups: two groups received oral DD217 at doses of 40 mg or 60 mg once daily, starting on the morning of the first postoperative day, and one group received the active comparator, dalteparin sodium. The treatment duration was 14 days.
(§2) In total, seven cases of DVT/PE were documented during the trial: four in the DD217 40 mg/day group, one in the DD217 60 mg/day group, and two in the dalteparin sodium group. In addition, two bleeding events were recorded: one clinically relevant non-major bleed in the DD217 60 mg/day group and one clinically non-relevant minor bleed in the dalteparin sodium group.

[2] = system: patients undergoing knee replacement surgery; test: Thromboembolic complications (DVT/PE) during 14-day therapy, phase II trial; type: in vivo, human; conditions: for With DVT/PE / Without DVT/PE: 40 mg/day, number of patients; for cases of DVT/PE / PE/DVT, n (safety outcomes): 14 days
Excerpt: as §1, §2

Factor Xa = system: Factor Xa; set-up: method as in PMID 29468977; conditions: preclinical studies; cited from earlier work
[3] = DD217 40 mg/day oral, of 16 patients
[4] = DD217 60 mg/day oral, of 18 patients

Structure (SMILES): CC(=N)N(C)c1ccc(C(=O)Nc2ccc(C)cc2C(=O)Nc2ccc(Cl)cn2)cc1.Cl [DD217, N-(5-chloropyridin-2-yl)-5-methyl-2-[4-(N-methylacetimidamido)benzamido]benzamide hydrochloride]
- Bleeding, n (safety outcomes) [1, 3]: 0 n
- bleeding events ([1]; DD217 60 mg/day group, clinically relevant non-major bleed): one
- Bleeding, n (safety outcomes) [1, 4]: 1 n
- With DVT/PE ([2]; ABCB1 rs1045642 C/C (n 5)): 3
- Without DVT/PE ([2]; ABCB1 rs1045642 C/C (n 5)): 2
- With DVT/PE ([2]; ABCB1 rs1045642 T/C (n 7)): 1
- Without DVT/PE ([2]; ABCB1 rs1045642 T/C (n 7)): 6
- With DVT/PE ([2]; ABCB1 rs1045642 T/T (n 4)): 0
- Without DVT/PE ([2]; ABCB1 rs1045642 T/T (n 4)): 4
- With DVT/PE ([2]; ABCB1 rs1128503 C/C (n 8)): 3
- Without DVT/PE ([2]; ABCB1 rs1128503 C/C (n 8)): 5
- With DVT/PE ([2]; ABCB1 rs1128503 C/T (n 6)): 1
- Without DVT/PE ([2]; ABCB1 rs1128503 C/T (n 6)): 5
- With DVT/PE ([2]; ABCB1 rs1128503 T/T (n 2)): 0
- Without DVT/PE ([2]; ABCB1 rs1128503 T/T (n 2)): 2
- With DVT/PE ([2]; ABCB1 rs2032582 G/G (n 8)): 3
- Without DVT/PE ([2]; ABCB1 rs2032582 G/G (n 8)): 5
- With DVT/PE ([2]; ABCB1 rs2032582 G/T (n 6)): 1
- Without DVT/PE ([2]; ABCB1 rs2032582 G/T (n 6)): 5
- With DVT/PE ([2]; ABCB1 rs2032582 T/T (n 2)): 0
- Without DVT/PE ([2]; ABCB1 rs2032582 T/T (n 2)): 2
- With DVT/PE ([2]; ABCB1 rs4148738 C/C (n 2)): 0
- Without DVT/PE ([2]; ABCB1 rs4148738 C/C (n 2)): 2
- With DVT/PE ([2]; ABCB1 rs4148738 T/C (n 6)): 1
- Without DVT/PE ([2]; ABCB1 rs4148738 T/C (n 6)): 5
- With DVT/PE ([2]; ABCB1 rs4148738 T/T (n 8)): 3
- Without DVT/PE ([2]; ABCB1 rs4148738 T/T (n 8)): 5
- cases of DVT/PE ([2]; DD217 40 mg/day group (n = 16)): four
- PE/DVT, n (safety outcomes) [2, 3]: 4 n
- cases of DVT/PE ([2]; DD217 60 mg/day group (n = 18)): one
- PE/DVT, n (safety outcomes) [2, 4]: 1 n
- affinity for the active site of factor Xa (Factor Xa): high affinity
